Experiments:
[1] = Octanol-water partition coefficient, shake-flask method; assay type: physicochemical; conditions: room temperature
Method: The lipophilicity of the CoCp complexes was estimated by the shake-flask method.[54] Before the assays, n-octanol was vigorously mixed with distilled water for 24 h at room temperature to promote solvent saturation of both phases. After separating the phases, the complexes were dissolved in the n-octanol phase to obtain solutions 1.0 × 10^–5 to 2.5 × 10^–4 M. Then, each solution was equilibrated with water for 4 h in a mechanical shaker, at a phase ratio of 2 mL n-octanol:2 mL water. Afterward, the aqueous and octanol layers were carefully separated by centrifugation (5000 rpm, 10 min), and the UV–vis absorption spectra of the complexes were recorded in the n-octanol phase. For each sample, the concentration was determined by using a calibration curve in n-octanol. All experiments were performed in triplicate for each complex, being the averages used for calculation purposes. Finally, the values of the partition coefficients were calculated by resorting to the following eq (eq 1): [drawing 1] 1 where logPoct/water represents the octanol–water partition coefficient, [complex]oct represents the concentration of the complex in the n-octanol phase, and [complex]water represents the concentration of the complex in the water phase.

[2] = tested on: MDA-MB-231 (human breast cancer) cell line; experiment: Antiproliferative activity, MTS assay, MDA-MB-231; assay type: cell-based; conditions: 48 h exposure
Method: (§1) Human colorectal carcinoma cell line (HCT116), human breast cancer cell lines (MDA-MB-231 and MCF-7), and normal human primary dermal fibroblasts neonatal (PCS-201-010) cell line were grown in DMEM (Dulbecco’s modified Eagle’s medium) (Invitrogen Corp., Grand Island, NY, USA) supplemented with 10% (v/v) fetal bovine serum and 1% (v/v) antibiotic/antimycotic solution (Invitrogen Corp.). The human ovarian carcinoma (A2780) cell line was cultivated using RPMI (Roswell Park Memorial Institute) medium supplemented as in DMEM medium. The supplemented medium is named a complete medium. Cells were grown in an incubator with a humidified atmosphere at 5% (v/v) CO2 and 37 °C. All cell lines were purchased from ATCC (ATCC, American Type Culture Collection).
(§2) The evaluation of the cytotoxic potential of complexes 1–4 was obtained through in vitro measurements of the antiproliferative activity of these complexes. Cells were plated in 96-well plates at 7.5 × 10^4 cells/mL and incubated at 37 °C with 5% (v/v) CO2. After 24 h, the culture medium was replaced with fresh medium (100 μL) containing 0.1–50 μM of the different complexes and incubated for 48 h in tumor cell lines or containing 0.1–100 μM of the different complexes and incubated for 48 h in fibroblasts. […] The fibroblast cell line was used as a control of the cytotoxicity of the complexes for healthy cells. Cell viability was evaluated using Cell Titer 96 Aqueous Non-Radioactive Cell Proliferation Assay (Promega, Madison, WI, USA) using 3-(4,5-dimethylthiazol-2-yl)-5-(3-carboxymethoxyphenyl)-2-(4-sulfophenyl)-2H-tetrazolium inner salt (MTS), as described previously.[60] In metabolically active cells, enzymes present in the mitochondria catalyze a reaction in which NADPH/NADH is produced. These enzymes reduce the MTS reagent into a brownish product, Formazan, which can be quantified by measuring the absorbance at 490 nm. The quantity of formazan produced is directly proportional to the number of viable cells in the culture. This quantification was executed with a Biorad microplate reader Model 680 (Bio-Rad, Hercules, CA, USA). Half maximal inhibitory concentration (IC50) was calculated using GraphPad Prism 6 (GraphPadSoftware). We have calculated the ratio between the IC50 of fibroblasts and the IC50 of HCT116, A2780, MDA-MB-231, or MCF-7 cell lines for complexes 1–4 that was named herein as the Selectivity index (SI). To ensure the solubility of the complexes in all biological assays, complex solutions were freshly prepared and well solubilized before addition to the cells.

[3] = tested on: normal human primary dermal fibroblasts; experiment: Antiproliferative activity, MTS assay, healthy fibroblasts; assay type: cell-based; conditions: 48 h exposure, healthy human cells
Method: as §1, §2

[4] = tested on: MCF-7 (human breast cancer) cell line; experiment: Antiproliferative activity, MTS assay, MCF-7; assay type: cell-based; conditions: 48 h exposure, MTS assay
Method: as §1, §2

[5] = tested on: A2780 (human ovarian carcinoma) cell line; experiment: Antiproliferative activity, MTS assay, A2780; assay type: cell-based; conditions: for IC50: 48 h exposure, MTS assay; for Selectivity index (SI) of ligands, A2780: Table S3, values with * calculated taking fibroblast IC50 as 100 µM (minimal value)
Method: as §1, §2

[6] = tested on: HCT116 (human colorectal carcinoma) cell line; experiment: Antiproliferative activity, MTS assay, HCT116; assay type: cell-based; conditions: for IC50: 48 h exposure, MTS assay; for Selectivity index (SI) of ligands, HCT116: Table S3, values with * calculated taking fibroblast IC50 as 50 µM (minimal value)
Method: as §1, §2

A2780 cells = experiment: Cell cycle progression (PI flow cytometry, double thymidine block); assay type: cell-based, human; conditions: A2780, 24 h; complexes at IC50, DOX 0.4 μM, cisplatin 5 μM
Method: The interference of the copper complexes 2–4 in the cell cycle progression was evaluated in A2780 cells, seeded in 6-weel plates, with a density of 2 × 10^5 cells/well, and incubated for 8 h at the same conditions as described above. After that incubation time, the cells were synchronized in early S-phase with a 2 mM thymidine solution (Sigma, St. Louis, USA) for a 16 h period. Media with thymidine was replaced by fresh media and, after 8 h, another 2 mM thymidine solution was added to the wells (double thymidine block) and incubated for 16 h. […] Cells were incubated for 9, 18, or 24 h, and, at each hour, the cells were treated with TE and centrifuges at 650 × g for 5 min at 4 °C. The pellet was resuspended in PBS 1× and centrifuged at 3000 × g for 5 min at 4 °C. Later, the pellet was resuspended in 100 μL of PBS 1×, and 1 mL of a solution of 80% (v/v) ethanol was gently added to the cells. Cells were stored at 4 °C for at least 12 h and then centrifuged for 10 min at 7500 × g at 4 °C, treated with 250 μL of 50 μg/mL RNase A, and incubated for 30 min at 37 °C. After incubation, 100 μL of PI (25 μg/mL) was added to the cells as well as 650 μL of PBS 1×. The DNA content was evaluated on an Attune Acoustic Focusing Flow Cytometer (ThermoFisher Scientific) and results were analyzed by the respective software.

A2780 cell line = experiment: Autophagy induction, flow cytometry; assay type: cell-based, human; conditions: A2780, 48 h; complexes at IC50, DOX 0.4 μM, cisplatin 5 μM; rapamycin 500 nM for 15 h
Method: The autophagy induced by complexes 2–4 was evaluated using the Autophagy Assay Kit (ab139484, Abcam, Cambridge, United Kingdom) according to the manufacturer’s instructions. For this, the A2780 cell line was seeded at a density of 2 × 10^5 cells/well in 6-well plates and incubated for 24 h at the conditions mentioned before. […] The positive control Rapamycin at 500 nM was incubated for only 15 h. After 48 h incubation, the cells were washed with PBS 1×, detached with TE, and treated with the Autophagy detection kit (Abcam, Cambridge, UK) according to the manufacturer’s instructions. The evaluation of autophagy induction was done through the Attune acoustic focusing flow cytometer (ThermoFisher Scientific) and respective software.

DNA of A2780 cells = experiment: Single-cell gel electrophoresis (comet assay); assay type: cell-based, human; conditions: A2780; complexes 10× IC50 for 12 h; H2O2 0.05% for 30 min at RT
Method: A2780 cells were seeded in 6-well plates with a density of 1 × 10^6 cells/well and incubated for 24 h in an incubator with a humidified atmosphere at 5% (v/v) CO2 and 37 °C. […] The complexes and DMSO were incubated at 37 °C for 12 h and H2O2 for 30 min at RT. Cells were harvested with a cell scraper and solutions with 1 × 10^5 cells/mL in PBS were prepared. It was withdrawn 10 μL from the solutions and added to 90 μL of 1.5% (w/v) low melting point agarose in 1× PBS and dropped on the slides prepared previously with a coating of 1.5% (w/v) agarose (normal melting point agarose) in 1× TAE buffer. After drying at 4 °C for 15 min, the slides were dipped into lysis solution (450 mM NaCl, 3.72% EDTA, 5 mM Tris; to which 10% (v/v) DMSO and 1% (v/v) Triton-X were added just before use) for 1 h at 4 °C, followed by their being dipped for 40 min into cold electrophoresis solution (1 mM EDTA, 300 mM NaOH, pH 13). Electrophoresis was performed at 4 °C for 30 min at 25 V using a Sub-Cell model 96 apparatus (Bio-Rad). Afterward, slides were placed in 0.1 M Tris–HCl buffer (pH 7.5) at 4 °C for 15 min for neutralization, followed by 15 min in methanol at 4 °C and drying at 37 °C. For visualization of comets, slides were hydrated with distilled water at 4 °C for 30 min, stained with 20 μL of GelRed working solution (3×), and covered with new coverslips. The slides were observed under a Ti–U Eclipse inverted microscope (Nikon Instruments, Japan) and analyzed by CometScore version 2.1 (TriTek). About 100 cells per sample were analyzed. The percentage of DNA in the tail was used as a measure of the total DNA strand breakage.

Structure (SMILES)	IC50 ([3]; Fibroblast) [µM]	IC50 ([5]; Homo sapiens, A2780) [µM]	Selectivity index (SI) of ligands, A2780 [5]	IC50 ([6]; Homo sapiens, HCT-116) [µM]	other results
O=S(=O)([O-])C(F)(F)F.O=S(=O)([O-])C(F)(F)F.[Co+3].c1cc[cH-]c1.c1ccc(-c2ccccn2)nc1.c1ccc(P(c2ccccc2)c2ccccc2)cc1 [Complex 1, [Co(η^5-C5H5)(PPh3)(bipy)][(CF3SO3)2]]	–	–	–	–	logP (n-octanol/water partition coefficient) [1]: −0.67 ± 0.02; IC50 [2]: > 50 µM; IC50 [3]: > 100 µM; IC50 [4]: > 50 µM; IC50 [5]: 18.1 ± 0.1 µM; IC50 [6]: > 50 µM
Cc1ccnc(-c2cc(C)ccn2)c1 [Me2bipy, 4,4′-dimethyl-2,2′-bipyridine]	> 50	17.6 ± 0.1	2.8	12.4 ± 0.2	fold less cytotoxic than Phen and NH2phen ligands ([5]; free ligand, A2780 and HCT116): about 10 fold; Selectivity index (SI) of ligands, HCT116 [6]: 4.0
Nc1cc2cccnc2c2ncccc12 [NH2phen, 5-amino-1,10′-phenanthroline]	29.9 ± 0.4	1.9 ± 0.08	15.2	2.3 ± 0.06	Selectivity index (SI) of ligands, HCT116 [6]: 13.1
c1ccc(P(c2ccccc2)c2ccccc2)cc1 [PPh3, triphenylphosphane]	> 50	37.8 ± 0.1	1.3	> 50	–
c1cnc2c(c1)ccc1cccnc12 [Phen, 1,10′-phenanthroline]	50.1 ± 0.1	2.4 ± 0.05	20.9	4.1 ± 0.04	Selectivity index (SI) of ligands, HCT116 [6]: 12.4
O=[C]=[Co]([I])([I])[CH]1C=CC=C1 [[CoCp(CO)I2]]	–	–	1.7	–	IC50 [3]: > 50 µM; IC50 [5]: 29.9 ± 0.1 µM; IC50 [6]: > 50 µM
c1ccc(-c2ccccn2)nc1 [bipy, 2,2′-bipyridine]	> 50	> 50	–	> 50	–
N.N.[Cl][Pt][Cl] [cisplatin, reference compound]	–	–	–	–	% of cells in the G2/M phase (A2780 cells): 31.3%; levels of autophagy (A2780 cell line): 96.7%; IC50 [5]: 1.9 ± 0.2 µM; IC50 [6]: 15.6 ± 5.3 µM
COc1cccc2c1C(=O)c1c(O)c3c(c(O)c1C2=O)C[C@@](O)(C(=O)CO)C[C@@H]3O[C@H]1C[C@H](N)[C@H](O)[C@H](C)O1 [doxorubicin, reference compound]	–	0.1 ± 0.1	–	0.5 ± 0.1	% of cells in the G2/M phase (A2780 cells): 77.9%; levels of autophagy (A2780 cell line): 84.1%
OO [hydrogen peroxide, reference compound]	–	–	–	–	% of DNA in the tail (DNA of A2780 cells): 73%
CO[C@H]1C[C@@H]2CC[C@@H](C)[C@@](O)(O2)C(=O)C(=O)N2CCCC[C@H]2C(=O)O[C@H]([C@H](C)C[C@@H]2CC[C@@H](O)[C@H](OC)C2)CC(=O)[C@H](C)/C=C(\C)[C@@H](O)[C@@H](OC)C(=O)[C@H](C)C[C@H](C)/C=C/C=C/C=C/1C [rapamycin, Rapamycin, reference compound]	–	–	–	–	levels of autophagy (A2780 cell line): 72.93%
